{
  "source": "patent US11173119B2",
  "about": "(YALE UNIVERSITY, priority 2012, dated 2021)",
  "key": {"[1]": {"conditions": "cited from earlier work"}, "[2]": {"test_system": "B16 lung metastases", "assay": "Metastatic B16 lung tumor study, intravenous nanolipogel therapy", "assay_type": "in vivo, B6 mice", "conditions": "two weeks after initial treatment", "experimental": "Metastatic B16 melanomas were established in female 6-8 week old B6 mice by intravenous (tail vein) administration of 50 μL of B16 cellular suspension as described by Gorelik, et al. Nat Med 7, 1118-1122 (2001). […] After sacrifice, the chest cavity was exposed and the lungs perfused by making a small incision in the right atrium and injecting 10 mL of cold PBS into the right ventricle. Lung metastates were counted by blinded observers who recorded dark circular masses ranging from 0.1-3 mm as unique tumors."}, "[3]": {"test_system": "Splenocytes", "assay": "IL-2 bioactivity study (splenocyte stimulation, IFN-γ ELISA)", "assay_type": "cell-based, B6 mouse", "conditions": "IFN-γ production correlated with IL-2 concentration", "experimental": "Splenocytes were isolated from a B6 mouse and 1×10^6 cells were added in 500 μL T cell media to each well of a 24 well plate previously coated with 10 μg/mL anti-CD3 (coated overnight in 1×PBS at 4° C.) and 5 μg/mL soluble anti-CD28 (BD Biosciences). The media from release studies was filtered through a 0.22-μm syringe filter (Whatman) and 500 μL was added to the wells. Additionally all wells contained 5 μg/mL, soluble anti-CD28 (BD Biosciences). […] Cells were incubated at 37° C. and cellular stimulation was assessed after 72 hours using an IFN-γ ELISA (BD Biosciences)."}, "[4]": {"test_system": "B16 melanomas", "assay": "In vivo subcutaneous tumor studies, intratumoral nanolipogel therapy", "set-up": "species or system B6 albino mice", "experimental": "B16-F10 cells (ATCC) were cultured in DMEM (Gibco) and suspended at 2×10^6 cells/mL in 1×PBS (kept on ice) directly prior to injection. For subcutaneous tumor studies, female 6-8 week-old B6 albino mice were sedated with AErrane (isofluorane; Baxter) and the right hind flank was shaved prior to a subcutaneous injection of 50 μL of the cellular suspension. Tumors were monitored and treatment began when the average tumor area reached approximately 5.5 mm^2 (8-10 days after B16 injection; mice were rearranged to normalize tumor sizes across groups).\nObservers were blinded for tumor area and survival studies. […] Five mice per group were euthanized at different timepoints and tumors were extracted and weighed."}},
  "data": [
    {"smiles": "Cc1cccc(-c2[nH]c(C(C)(C)C)nc2-c2ccc3c(c2)OCO3)n1.Cl", "note": "[SB, 2-(5-benzo[1,3]dioxol-5-yl-2-tert-butyl-3H-imidazol-4-yl)-6-methylpyridine hydrochloride]", "values": [
      {"measurement": "Log P", "setting": "[1]", "result": 4.33},
      {"measurement": "number of lung tumors", "setting": "[2]", "result": "failed to reduce the number of lung tumors"},
      {"measurement": "bioactivity after lipogel incorporation", "setting": "[3]", "result": "unaffected"},
      {"measurement": "survival", "setting": "[4]; intratumoral", "result": "did not improve survival"},
      {"measurement": "tumor growth (tumor area versus time)", "setting": "[4]; weekly intratumoral administration", "result": "failed to delay tumor growth"}
    ]}
  ]
}
